Assay results: the kinase profiling compilation of Christmann-Franck et al. (2016)

Assays:
Assay in all cases: KINOMEscan competition binding
Conditions in all cases: compound 1.0 µM
ACVR1 (human) = ACVR1 (human) (UniProt Q04771)
ACVR2A (human) = ACVR2A (human) (UniProt P27037)
ADCK3 (human) = ADCK3 (human) (UniProt Q8NI60)
AKT1 (human) = AKT1 (human) (UniProt P31749)
BMPR1A (human) = BMPR1A (human) (UniProt P36894)
CAMK1D (human) = CAMK1D (human) (UniProt Q8IU85)
CAMK2B (human) = CAMK2B (human) (UniProt Q13554)
CDK18 (human) = CDK18 (human) (UniProt Q07002)
CDKL5 (human) = CDKL5 (human) (UniProt O76039)
CLK2 (human) = CLK2 (human) (UniProt P49760)
CLK4 (human) = CLK4 (human) (UniProt Q9HAZ1)
Chain of CLK4 (human) (Q9HAZ1 whole entry, looked up): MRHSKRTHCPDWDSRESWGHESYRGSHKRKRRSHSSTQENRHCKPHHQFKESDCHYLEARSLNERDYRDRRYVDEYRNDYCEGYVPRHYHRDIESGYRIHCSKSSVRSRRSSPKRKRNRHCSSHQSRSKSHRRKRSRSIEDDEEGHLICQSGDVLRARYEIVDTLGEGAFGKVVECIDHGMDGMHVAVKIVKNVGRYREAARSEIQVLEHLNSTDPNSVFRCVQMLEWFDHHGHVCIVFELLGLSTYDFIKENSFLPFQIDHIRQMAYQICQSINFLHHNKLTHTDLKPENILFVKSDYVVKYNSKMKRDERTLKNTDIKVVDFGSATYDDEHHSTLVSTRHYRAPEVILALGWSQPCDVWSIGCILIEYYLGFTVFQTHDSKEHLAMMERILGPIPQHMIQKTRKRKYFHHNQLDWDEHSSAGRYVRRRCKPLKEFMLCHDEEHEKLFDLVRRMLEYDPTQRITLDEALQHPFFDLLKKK

CSK (human) = CSK (human) (UniProt P41240)
Chain of CSK (human) (P41240 whole entry, looked up): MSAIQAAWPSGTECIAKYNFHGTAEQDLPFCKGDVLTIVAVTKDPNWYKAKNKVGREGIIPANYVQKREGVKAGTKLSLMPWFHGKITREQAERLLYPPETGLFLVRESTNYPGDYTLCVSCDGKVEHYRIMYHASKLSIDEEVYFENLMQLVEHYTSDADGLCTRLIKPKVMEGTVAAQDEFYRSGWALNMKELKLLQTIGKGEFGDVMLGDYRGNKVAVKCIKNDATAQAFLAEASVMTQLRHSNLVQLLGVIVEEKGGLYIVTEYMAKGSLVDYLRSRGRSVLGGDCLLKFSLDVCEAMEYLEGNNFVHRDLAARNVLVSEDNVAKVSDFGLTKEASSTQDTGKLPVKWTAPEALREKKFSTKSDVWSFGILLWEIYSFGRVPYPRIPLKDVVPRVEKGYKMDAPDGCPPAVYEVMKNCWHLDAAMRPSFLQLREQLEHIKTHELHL

DCLK3 (human) = DCLK3 (human) (UniProt Q9C098)
[1] = test system: EGFR (human), P00533 [747-751 del / S ins]
EPHA3 (human) = EPHA3 (human) (UniProt P29320)
ERBB2 (human) = ERBB2 (human) (UniProt P04626)
[2] = test system: FLT3 (human), P36888 [D835H]
HIPK1 (human) = HIPK1 (human) (UniProt Q86Z02)
Chain of HIPK1 (human) (Q86Z02 whole entry, looked up): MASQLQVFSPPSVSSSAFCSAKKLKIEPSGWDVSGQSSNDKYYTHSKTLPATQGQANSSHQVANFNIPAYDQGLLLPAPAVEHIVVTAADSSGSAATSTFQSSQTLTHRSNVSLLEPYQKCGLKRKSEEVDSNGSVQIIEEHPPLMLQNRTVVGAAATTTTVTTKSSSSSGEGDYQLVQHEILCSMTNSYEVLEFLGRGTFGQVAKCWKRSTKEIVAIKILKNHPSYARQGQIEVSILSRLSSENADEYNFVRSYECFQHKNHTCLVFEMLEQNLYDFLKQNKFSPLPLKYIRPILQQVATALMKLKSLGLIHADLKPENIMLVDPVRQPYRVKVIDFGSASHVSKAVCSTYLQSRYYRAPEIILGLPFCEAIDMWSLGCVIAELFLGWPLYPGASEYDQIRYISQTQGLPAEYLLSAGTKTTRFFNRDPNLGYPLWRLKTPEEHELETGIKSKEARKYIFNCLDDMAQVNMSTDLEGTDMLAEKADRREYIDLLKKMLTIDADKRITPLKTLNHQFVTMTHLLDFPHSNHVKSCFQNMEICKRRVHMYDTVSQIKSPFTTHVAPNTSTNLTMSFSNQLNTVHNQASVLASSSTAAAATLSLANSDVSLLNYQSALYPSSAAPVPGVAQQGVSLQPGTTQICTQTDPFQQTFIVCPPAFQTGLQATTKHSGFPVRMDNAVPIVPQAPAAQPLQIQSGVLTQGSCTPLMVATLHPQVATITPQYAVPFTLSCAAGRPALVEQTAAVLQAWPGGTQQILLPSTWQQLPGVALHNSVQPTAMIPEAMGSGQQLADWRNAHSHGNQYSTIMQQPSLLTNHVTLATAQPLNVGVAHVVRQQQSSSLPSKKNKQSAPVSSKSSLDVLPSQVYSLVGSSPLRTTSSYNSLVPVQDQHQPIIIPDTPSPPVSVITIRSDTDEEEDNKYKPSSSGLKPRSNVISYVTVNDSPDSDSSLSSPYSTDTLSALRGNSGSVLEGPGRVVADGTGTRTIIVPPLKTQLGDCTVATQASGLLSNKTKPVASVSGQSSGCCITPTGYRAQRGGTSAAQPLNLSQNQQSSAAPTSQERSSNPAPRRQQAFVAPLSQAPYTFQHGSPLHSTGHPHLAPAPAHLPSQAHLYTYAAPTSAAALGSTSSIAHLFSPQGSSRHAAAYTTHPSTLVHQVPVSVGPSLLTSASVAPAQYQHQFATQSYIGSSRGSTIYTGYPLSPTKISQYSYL

INSRR (human) = INSRR (human) (UniProt P14616)
Chain of INSRR (human) (P14616 whole entry, looked up): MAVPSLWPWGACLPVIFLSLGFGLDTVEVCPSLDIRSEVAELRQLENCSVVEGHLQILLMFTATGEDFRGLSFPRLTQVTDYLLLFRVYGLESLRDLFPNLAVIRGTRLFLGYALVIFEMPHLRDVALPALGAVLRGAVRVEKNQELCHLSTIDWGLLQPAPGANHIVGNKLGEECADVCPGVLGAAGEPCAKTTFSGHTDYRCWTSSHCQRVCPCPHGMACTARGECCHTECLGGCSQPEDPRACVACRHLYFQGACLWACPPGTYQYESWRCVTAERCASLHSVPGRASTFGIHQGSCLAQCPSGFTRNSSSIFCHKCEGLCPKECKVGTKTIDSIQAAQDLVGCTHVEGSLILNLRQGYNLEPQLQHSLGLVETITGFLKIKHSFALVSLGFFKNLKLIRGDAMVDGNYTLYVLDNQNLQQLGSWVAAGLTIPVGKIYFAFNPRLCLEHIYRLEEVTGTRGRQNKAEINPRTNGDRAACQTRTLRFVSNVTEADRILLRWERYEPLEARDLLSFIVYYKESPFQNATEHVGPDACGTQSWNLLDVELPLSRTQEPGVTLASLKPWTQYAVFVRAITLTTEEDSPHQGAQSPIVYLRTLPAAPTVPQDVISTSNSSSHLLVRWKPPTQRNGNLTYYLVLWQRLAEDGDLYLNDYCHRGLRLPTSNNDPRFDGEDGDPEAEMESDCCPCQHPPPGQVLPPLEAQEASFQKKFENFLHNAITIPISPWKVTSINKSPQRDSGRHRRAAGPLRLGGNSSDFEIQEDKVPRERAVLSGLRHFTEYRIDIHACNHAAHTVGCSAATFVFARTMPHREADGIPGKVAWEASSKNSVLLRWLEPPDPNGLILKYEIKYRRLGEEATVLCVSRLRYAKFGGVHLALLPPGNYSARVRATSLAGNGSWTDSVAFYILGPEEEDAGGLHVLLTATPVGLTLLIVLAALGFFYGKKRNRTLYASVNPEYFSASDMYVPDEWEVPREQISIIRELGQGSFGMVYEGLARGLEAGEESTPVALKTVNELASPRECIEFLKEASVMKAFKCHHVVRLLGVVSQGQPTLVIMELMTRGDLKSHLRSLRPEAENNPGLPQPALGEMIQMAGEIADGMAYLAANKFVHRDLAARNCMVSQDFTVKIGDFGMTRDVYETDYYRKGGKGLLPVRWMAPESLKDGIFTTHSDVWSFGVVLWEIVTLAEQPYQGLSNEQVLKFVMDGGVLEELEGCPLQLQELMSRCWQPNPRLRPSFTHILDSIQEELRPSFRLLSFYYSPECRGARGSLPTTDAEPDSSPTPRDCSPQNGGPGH

[3] = target: JAK1 JH2 pseudokinase (human) (UniProt P23458)
[4] = test system: KIT (human), P10721 [A829P]
Chain of KIT (human), P10721 [A829P] (P10721 whole entry A829P, looked up): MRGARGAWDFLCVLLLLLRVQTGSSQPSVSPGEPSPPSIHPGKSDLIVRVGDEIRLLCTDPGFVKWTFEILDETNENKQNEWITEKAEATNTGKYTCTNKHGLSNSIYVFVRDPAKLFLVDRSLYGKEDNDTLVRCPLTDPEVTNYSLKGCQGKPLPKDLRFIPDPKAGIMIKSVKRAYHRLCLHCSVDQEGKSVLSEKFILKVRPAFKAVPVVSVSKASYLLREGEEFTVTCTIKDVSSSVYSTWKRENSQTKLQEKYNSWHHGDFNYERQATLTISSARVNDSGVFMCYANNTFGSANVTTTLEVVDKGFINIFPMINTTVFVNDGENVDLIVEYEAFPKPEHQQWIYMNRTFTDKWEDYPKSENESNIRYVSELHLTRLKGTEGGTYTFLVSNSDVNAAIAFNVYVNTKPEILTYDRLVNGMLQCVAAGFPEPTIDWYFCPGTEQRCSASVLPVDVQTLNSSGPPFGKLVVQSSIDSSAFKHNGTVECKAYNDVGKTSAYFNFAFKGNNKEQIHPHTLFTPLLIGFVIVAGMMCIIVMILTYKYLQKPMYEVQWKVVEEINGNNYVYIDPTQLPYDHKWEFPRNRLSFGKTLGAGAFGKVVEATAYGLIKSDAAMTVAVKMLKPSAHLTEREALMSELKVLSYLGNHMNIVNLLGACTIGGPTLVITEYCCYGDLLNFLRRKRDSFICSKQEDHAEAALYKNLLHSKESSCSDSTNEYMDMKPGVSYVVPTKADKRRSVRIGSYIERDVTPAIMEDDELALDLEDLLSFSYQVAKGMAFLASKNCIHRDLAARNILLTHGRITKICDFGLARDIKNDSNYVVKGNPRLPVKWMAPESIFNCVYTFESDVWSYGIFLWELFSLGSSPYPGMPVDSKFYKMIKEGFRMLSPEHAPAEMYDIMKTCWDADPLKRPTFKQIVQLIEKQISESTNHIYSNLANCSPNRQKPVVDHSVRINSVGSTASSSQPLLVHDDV

[5] = test system: KIT (human), P10721 [L576P]
Chain of KIT (human), P10721 [L576P] (P10721 whole entry L576P, looked up): as the sequence (P10721 whole entry A829P, looked up) above, with L576P, P829A counted along it

LIMK1 (human) = LIMK1 (human) (UniProt P53667)
LTK (human) = LTK (human) (UniProt P29376)
MAP2K1 (human) = MAP2K1 (human) (UniProt Q02750)
Chain of MAP2K1 (human) (Q02750 whole entry, looked up): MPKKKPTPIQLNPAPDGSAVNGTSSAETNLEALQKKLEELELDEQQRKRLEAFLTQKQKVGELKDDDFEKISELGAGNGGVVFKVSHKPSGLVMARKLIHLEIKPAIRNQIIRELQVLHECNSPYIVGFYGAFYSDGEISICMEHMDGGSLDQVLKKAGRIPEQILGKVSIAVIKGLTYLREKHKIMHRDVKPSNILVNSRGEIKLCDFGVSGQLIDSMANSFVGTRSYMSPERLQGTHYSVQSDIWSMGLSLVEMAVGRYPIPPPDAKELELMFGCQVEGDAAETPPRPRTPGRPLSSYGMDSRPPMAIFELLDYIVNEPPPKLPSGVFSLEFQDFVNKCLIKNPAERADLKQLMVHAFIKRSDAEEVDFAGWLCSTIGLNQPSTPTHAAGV

MAP4K5 (human) = MAP4K5 (human) (UniProt Q9Y4K4)
MAPK14 (human) = MAPK14 (human) (UniProt Q16539)
MAPK8 (human) = MAPK8 (human) (UniProt P45983)
MARK4 (human) = MARK4 (human) (UniProt Q96L34)
MATK (human) = MATK (human) (UniProt P42679)
MERTK (human) = MERTK (human) (UniProt Q12866)
MYO3B (human) = MYO3B (human) (UniProt Q8WXR4)
PIP4K2C (human) = PIP4K2C (human) (UniProt Q8TBX8)
RPS6KA2 KD2 (human) = RPS6KA2 KD2 (human) (UniProt Q15349)
STK35 (human) = STK35 (human) (UniProt Q8TDR2)
TNIK (human) = TNIK (human) (UniProt Q9UKE5)
[6] = target: TYK2 JH1 catalytic (human) (UniProt P29597)
ULK1 (human) = ULK1 (human) (UniProt O75385)
VRK2 (human) = VRK2 (human) (UniProt Q86Y07)

SMILES: CNc1nc(Nc2ccc(C(=O)N3CCOCC3)cc2OC)ncc1Cl
- kinase still bound, per cent of control (ACVR1 (human)): 95%
- kinase still bound, per cent of control (ACVR2A (human)): 75%
- kinase still bound, per cent of control (ADCK3 (human)): 100%
- kinase still bound, per cent of control (AKT1 (human)): 99%
- kinase still bound, per cent of control (BMPR1A (human)): 100%
- kinase still bound, per cent of control (CAMK1D (human)): 100%
- kinase still bound, per cent of control (CAMK2B (human)): 89%
- residual activity (CDK18 (human)): 98%
- residual activity (CDKL5 (human)): 94%
- kinase still bound, per cent of control (CLK2 (human)): 84%
- kinase still bound, per cent of control (CLK4 (human)): 100%
- kinase still bound, per cent of control (CSK (human)): 100%
- kinase still bound, per cent of control (DCLK3 (human)): 100%
- kinase still bound, per cent of control [1]: 100%
- kinase still bound, per cent of control (EPHA3 (human)): 100%
- kinase still bound, per cent of control (ERBB2 (human)): 100%
- kinase still bound, per cent of control [2]: 78%
- kinase still bound, per cent of control (HIPK1 (human)): 79%
- kinase still bound, per cent of control (INSRR (human)): 90%
- kinase still bound, per cent of control [3]: 90%
- kinase still bound, per cent of control [4]: 93%
- kinase still bound, per cent of control [5]: 9.4%
- kinase still bound, per cent of control (LIMK1 (human)): 91%
- kinase still bound, per cent of control (LTK (human)): 50%
- kinase still bound, per cent of control (MAP2K1 (human)): 89%
- kinase still bound, per cent of control (MAP4K5 (human)): 73%
- kinase still bound, per cent of control (MAPK14 (human)): 100%
- kinase still bound, per cent of control (MAPK8 (human)): 44%
- kinase still bound, per cent of control (MARK4 (human)): 45%
- kinase still bound, per cent of control (MATK (human)): 100%
- kinase still bound, per cent of control (MERTK (human)): 100%
- kinase still bound, per cent of control (MYO3B (human)): 100%
- kinase still bound, per cent of control (PIP4K2C (human)): 100%
- kinase still bound, per cent of control (RPS6KA2 KD2 (human)): 92%
- kinase still bound, per cent of control (STK35 (human)): 100%
- kinase still bound, per cent of control (TNIK (human)): 100%
- kinase still bound, per cent of control [6]: 73%
- kinase still bound, per cent of control (ULK1 (human)): 100%
- kinase still bound, per cent of control (VRK2 (human)): 95%
